Assay results taken from patent EP2371816A1, “Aminocyclohexenone, their preparation and use as medicament against oxidative stress” (ABIOGEN PHARMA S.p.A., priority 2010, dated 2011).

Experiments:
[1] = tested on: BAEC cells (bovine aortic endothelial); test: In vitro inhibition of CHP-induced oxidative stress (DCF fluorescence) in BAEC cells; assay type: cell-based; conditions: 500 µM CHP, compound 4, 20, 100 and 500 µM, 30 minutes at 37 °C, range given for both cell lines together
Description: (§1) The method used was essentially the one reported by Rüweler M. et al. ("Inhibition of peroxide-induced radical generation by plant polyphenols in C6 astroglioma cells" (2008) Toxicol in vitro 22, 1377-81), with a few minor modifications.
(§2) The cells were seeded in phenol-red free DMEM (Sigma Aldrich) into 96-well plates with 5% FBS and 20 mM HEPES at a density of 40,000 cells/well. After 48 hours, the medium was substituted by HBSS (Hanks' Balanced Salt Solution, Sigma) containing 10 µM of dihydro-2',7'-dichlorofluorescein diacetate (H2DCF-DA, Sigma Aldrich) and incubated in darkness for 30 minutes at 37 °C, in order to load the cells with fluorescent dye. H2DCF-DA was hydrolyzed enzymatically by the intracellular esterases to form non-fluorescent H2DCF, which was then rapidly oxidized to form 2',7'-dichlorofluorescein (DCF) being highly fluorescent in the presence of reactive species (RS). The intensity of DCF fluorescence is directly proportional to the amount of RS formed.
(§3) After carrying out two washes, the cells were exposed to 500 µM of CHP and various concentrations (4, 20, 100 and 500 µM) of the compounds of the invention for 30 minutes at 37 °C. Fluorescence was then measured, after cell washing, by a microplate reader at an excitation wavelength of 485 nm and an emission wavelength of 535 nm.
(§4) Six wells per plate per concentration of test composition (compound + CHP) and per control (HBSS without CHP) were measured and 12 wells were used as reference for CHP-induced stress. In addition, each 96-well plate contained 6 wells that received the highest concentration of the tested compounds without CHP, to investigate whether the compounds of the invention alone were able to induce cellular radical formation.
(§5) When using this assay, it should be borne in mind that DCF fluorescence is a generalized indicator of oxidative stress rather than of any particular reactive species, i.e. it is not a direct assay for H2O2 or other reactive species (Halliwell B, Whiteman M. (2004) "Measuring reactive species and oxidative damage in vivo and in cell culture: how should you do it and what do the results mean?" Br. J. Pharmacol. 142 231-255). Therefore, when an increase in DCF fluorescence induced by exposure of cells to CHP was measured, as was undertaken in these assays, it was not possible to deduce which reactive species was responsible. Inhibition of CHP-induced fluorescence was evaluated by means of different concentrations of the compounds of the invention and comparative compounds such as Trolox and edaravone.

C6 cells (rat glioma) = test: In vitro inhibition of CHP-induced oxidative stress (DCF fluorescence) in C6 cells; assay type: cell-based; conditions: 500 µM CHP, compound 4, 20, 100 and 500 µM, 30 minutes at 37 °C, range given for both cell lines together
Description: as §1, §2, §3, §4, §5

[2] = tested on: cerebral oxidative stress induced in mice by doxorubicin; test: In vivo assay of cerebral oxidative stress induced in mice by doxorubicin
Description: The assay was carried out on compounds (1) and (3)-(6) and on edaravone (E) as comparative compound.
10 mice were used for each treatment group. For each compound 50 mg/kg were administered intraperitoneally (IP) for three consecutive days (day 0, 1 and 2); half the animals (5) also received IP 16.7 mg/kg of doxorubicin immediately after the first treatment (day 0). On the day after the last administration (day 3) the animals were killed by neck dislocation and the brains were removed, weighed and frozen in liquid nitrogen.
For the analyses of oxidative stress, 100 mg/ml of brain homogenate was prepared in Hebe buffer (pH 7.4 EDTA/HEPES^(**)) containing a mixture of enzyme inhibitors (Leupeptin, Pepstatin, Aprotinin, BHA). • ^(*) Hypotonic Extraction Buffer • ^(**) 4-2-hydroxyethyl-1-piperazinyl-ethanesulphonic acid
The evaluation parameters were: • BrW/BWi: ratio between final brain weight and initial body weight (day 0); • Prot. Hmg: total proteins in the homogenate (BCA method, i.e. bicinchoninic acid); • Prot. Ox: oxidized proteins in the Hmg by means of a colorimetric method using […] (DNPH); • GSH: reduced glutathione in the supernatant (sn) of the Hmg, obtained after precipitation with metaphosphoric acid (MPA), by means of a colorimetric method using […] (DTNB); • CAT: catalase in the Hmg by a colorimetric method using potassium dichromate; • SOD: superoxide dismutase by a colorimetric method using SOD Reagent (xanthine, EDTA, nitroblue tetrazole, Na2CO3, BSA, i.e. bovine serum albumin); • GST: glutathione S-transferase in the supernatant by a colorimetric method using chlorodinitrobenzene (CDNB) and GSH; and • GPx: glutathione peroxidase in the supernatant after addition of GSH and tert butyl hydroperoxide (t-BuOOH), heating and precipitation with MPA; followed by GSH method with DTNB.
All the parameters, with the exclusion of Brain/BWi and Prot. Hmg, were normalized for total Hmg proteins (Table 3). The D value standard deviations and the % incidence relative to V are given in italics.
The mean % effect, on all the parameters simultaneously, of the triple treatment in the healthy animals, as mean percentage variation relative to the vehicle (table 4). This value is useful as an approximate safety index of the oxidative state of the brain, i.e. the capacity of the compounds of the invention not to alter cerebral homeostasis in healthy animals.
The effect of the tested compounds on the "oxidized" animals was given as % inhibition relative to the percentage variation due to doxorubicin alone. The effect of the compounds on the oxidized animals can be expressed both as a function of the values of the vehicle (healthy, vehicle only) and as a function of the value of its own control (healthy, compound only): • Vehicle: percentage [(Compound+D)/V]x100/[(V+D)/V]x100 • Its own: percentage [(Compound+D)/Compound]x100/[(V+D)/V]x100

[3] = TEAC method (Trolox Equivalent Antioxidant Capacity Assay); conditions: ratio of gradient to gradient of reference (trolox); 37 °C, 650 nm, pH 4.5
Text: This assay is used to measure the total antioxidant activity of pure substances, biological fluids and plant compounds and is based on the reaction of antioxidants with the cation radical ABTS^˙+ (2,2'-azinobis(3-ethylbenzothiazolin-6-sulphonate)). This cation radical is metastable and has to be generated just before the experiment by reacting ABTS with hydrogen peroxide in the presence of HRP.
This radical can be reduced, with consequent loss of absorbance, by an antioxidant whose scavenging capacity can be measured spectrophotometrically at 650 nm. The test is carried out at 37 °C and the results are obtained from a comparison with Trolox (a synthetic antioxidant and hydrophilic analogue of vitamin E).
The ABTS solution S1 was prepared as follows: • 20 mg of ABTS were added to 50 mM of citric acid buffer (40 ml) at pH=4.5 and to the resulting solution there was added an aqueous solution of HRP (4.4 mg, 400 µl) and an aqueous solution of H2O2 (10 µl of a 30% solution diluted with 16.3 ml of water).
For each of the compounds (2), (6) and (7), as synthesized above, there was prepared a 600 µM solution in water, methanol or DMSO according to its solubility, as well as a Trolox solution as reference.
Each solution was diluted to produce 6 solutions each at a concentration between 25 µM and 300 µM. From each of the diluted and divided solutions, there were withdrawn 20 µl to which 200 µl of solution S1 were then added.
The decrease in absorbance of each solution thus obtained was monitored at 650 nm until a stable value was reached (about 90 minutes).
For each set of 6 solutions and for the reference trolox solution, the absorption was given in graph form as a function of the amount of compound (nmol) in the solution. The gradient of the straight line obtained by linear interpolation was determined according to the least squares method. The TEAC value of each compound of the invention is given in the table below and is expressed as the ratio between the gradient of the resulting straight line and the gradient of the reference (trolox) straight line.

[4] = % variation relative to the vehicle, healthy animals, 50 mg/kg IP x3 days (D = doxorubicin alone)

Brain/BWi [2, 4]	CAT/pr [2, 4]	GPX/pr [2, 4]	GSH/pr [2, 4]	GST/pr [2, 4]	Prot. Hmg [2, 4]	Prot. Ox/pr [2, 4]	SOD/pr [2, 4]	Structure (SMILES)	Inhibition of CHP-induced fluorescence [1]	Inhibition of CHP-induced fluorescence (C6 cells (rat glioma))	overall inhibitory effect on the doxorubicin-induced oxidation ([2]; both with respect to the Vehicle and Its own)	Mean % variation relative to the vehicle ([2]; healthy animals, 50 mg/kg IP days 0, 1 and 2, mean over all parameters, approximate safety index (D = doxorubicin alone), 50 mg/kg)	TEAC [3]
								Cc1c(C)c2c(c(C)c1O)CCC(C)(C(=O)O)O2 (stereo not drawn) [Trolox, reference compound]	10-50%	10-50%			
2.7%	-5.0%	-6.7%	-5.5%	-3.1%	3.7%	-2.3%	-2.2%	CC1=NN(c2ccccc2)C(=O)C1 [edaravone, reference compound]	10-50%	10-50%	about 75%	-2.7%	0.9
